One test deals with c-Cbl (Homo sapiens (Human), UniProt P22681). Put plainly: C-Cbl LCK Ub TR-FRET assay (c-cbl Lck HTRF). Type of test: biochemical. The conditions noted are these: for (fold-selectivity): C-cbl Lck HTRF IC50 relative to Cbl-b Lck HTRF IC50. In outline: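 Detection reagents added, brief spin, 20 min RT. IC50 fit normalized to no-LCK (low) and DMSO (high) controls.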
Background: Time-resolved FRET reads energy transfer from a long-lived donor to a nearby acceptor.

For a further test, the target named is Cbl-b (Homo sapiens (Human), UniProt Q13191). Nature of the test: Cbl-b LCK Ub TR-FRET assay (Cbl-b Lck HTRF). Type of test: biochemical. The essentials: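 TR-FRET (340 nm excitation, 615/665 nm emission) read after adding HA-ubiquitin–UBE2D2 thioester, anti-HA-D2 and streptavidin-Eu. Beforehand, compounds incubated 60 min with biotinylated Cbl-b, then 90 min with His-LCK and ATP (1 mM in 2× mix); IC50 from 10 concentrations, DMSO high and no-LCK low controls.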
Chain of Cbl-b (Q13191 40-426): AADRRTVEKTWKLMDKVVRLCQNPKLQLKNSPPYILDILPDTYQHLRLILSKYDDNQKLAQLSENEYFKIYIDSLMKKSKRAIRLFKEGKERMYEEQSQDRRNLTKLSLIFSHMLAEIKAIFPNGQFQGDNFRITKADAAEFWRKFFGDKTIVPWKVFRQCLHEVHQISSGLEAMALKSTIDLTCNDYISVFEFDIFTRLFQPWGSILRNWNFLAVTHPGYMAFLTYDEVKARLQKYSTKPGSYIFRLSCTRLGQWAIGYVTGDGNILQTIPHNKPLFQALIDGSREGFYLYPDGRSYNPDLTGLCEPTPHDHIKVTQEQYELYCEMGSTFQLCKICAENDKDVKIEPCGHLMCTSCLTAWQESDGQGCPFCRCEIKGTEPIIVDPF

Structures are written as SMILES. pIC50: −log10 of the molar value.

Chain of c-Cbl (P22681 47-435): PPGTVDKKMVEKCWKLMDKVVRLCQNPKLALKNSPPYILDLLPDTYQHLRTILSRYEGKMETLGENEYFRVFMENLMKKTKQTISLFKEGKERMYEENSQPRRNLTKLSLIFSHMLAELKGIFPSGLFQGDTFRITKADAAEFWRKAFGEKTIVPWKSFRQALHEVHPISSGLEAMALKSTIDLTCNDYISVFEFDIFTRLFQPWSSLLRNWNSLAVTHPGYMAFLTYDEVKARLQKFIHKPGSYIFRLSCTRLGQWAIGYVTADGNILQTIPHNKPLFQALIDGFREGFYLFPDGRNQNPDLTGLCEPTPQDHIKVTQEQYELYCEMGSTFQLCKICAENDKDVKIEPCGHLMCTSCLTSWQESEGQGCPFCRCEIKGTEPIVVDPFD

On to `COCCN1CCC(Nc2cc(C3(Cc4nncn4C)CCC3)cc(N3Cc4c(cc(CNC5(C)CCC5)cc4C(F)(F)F)C3=O)n2)CC1` [Compound 302, 2-(6-((1-(2-methoxyethyl)piperidin-4-yl)amino)-4-(1-((4-methyl-4H-1,2,4-triazol-3-yl)methyl)cyclobutyl)pyridin-2-yl)-6-(((1-methylcyclobutyl)amino)methyl)-4-(trifluoromethyl)isoindolin-1-one], for which, at c-Cbl, the pIC50 is 6.18 and the “(fold-selectivity)” value is “(1.1x)”. Moreover, the pIC50 against Cbl-b was 6.23.
In the same order, the values of `Cn1cnnc1C[C@]1(c2cccc(N3Cc4c(cccc4C(F)(F)F)C3=O)c2)C[C@H](F)C1` [Compound 100, 2-(3-((1r,3s)-3-fluoro-1-((4-methyl-4H-1,2,4-triazol-3-yl)methyl)cyclobutyl)phenyl)-4-(trifluoromethyl)isoindolin-1-one] are 6.42, 1.9x and 6.72.
In the case of `CC(C)[C@H]1CNCCN1Cc1cc2c(c(C(F)(F)F)c1)CN(c1cccc(C3([C@H](F)c4nncn4C)CCC3)c1)C2=O` [Compound 217, 2-(3-(1-((S)-fluoro(4-methyl-4H-1,2,4-triazol-3-yl)methyl)cyclobutyl)phenyl)-6-(((S)-2-isopropylpiperazin-1-yl)methyl)-4-(trifluoromethyl)isoindolin-1-one], on c-Cbl, the pIC50 was 7.70 and the “(fold-selectivity)” value came out at 1.2x. The pIC50 against Cbl-b is 7.77.
In the same order, the values of `Cn1cnnc1[C@H](F)C1(c2cccc(N3Cc4c(cc([C@H](N)C5CC5)cc4C(F)(F)F)C3=O)c2)COC1` [Compound 54, 6-((R)-amino(cyclopropyl)methyl)-2-(3-(3-((R)-fluoro(4-methyl-4H-1,2,4-triazol-3-yl)methyl)oxetan-3-yl)phenyl)-4-(trifluoromethyl)isoindolin-1-one] are 7.34, 1.6x and 7.54.
`Cn1cc(-c2cc(C3(Cc4nncn4C)CCC3)cc(N3Cc4c(cc(CNC5(C)CCC5)cc4C(F)(F)F)C3=O)n2)cn1` [Compound 327, 2-(6-(1-methyl-1H-pyrazol-4-yl)-4-(1-((4-methyl-4H-1,2,4-triazol-3-yl)methyl)cyclobutyl)pyridin-2-yl)-6-(((1-methylcyclobutyl)amino)methyl)-4-(trifluoromethyl)isoindolin-1-one]: the pIC50 against c-Cbl and at Cbl-b was 7.92 in each case. Besides, the “(fold-selectivity)” value at c-Cbl is “(1.0x)”.
Turning to `Cn1cnnc1CC1(c2cc(C3CC3)nc(N3Cc4c(cc(CNC5(C)CCC5)cc4C(F)(F)F)C3=O)c2)CCC1` [Compound 284, 2-(6-cyclopropyl-4-(1-((4-methyl-4H-1,2,4-triazol-3-yl)methyl)cyclobutyl)pyridin-2-yl)-6-(((1-methylcyclobutyl)amino)methyl)-4-(trifluoromethyl)isoindolin-1-one], at c-Cbl, the negative-log IC50 (pIC50) was 8.13 and the “(fold-selectivity)” value is reported as “(0.59x)”. Further, the negative-log IC50 (pIC50) on Cbl-b was 7.92.
On the same counts, the results for `CO[C@H]1CCCN(Cc2cc3c(c(C(F)(F)F)c2)CN(c2cccc(C4(Cc5nncn5C)CC(F)(F)C4)c2)C3=O)C1` [Compound 443, (S)-2-(3-(3,3-difluoro-1-((4-methyl-4H-1,2,4-triazol-3-yl)methyl)cyclobutyl)phenyl)-6-((3-methoxypiperidin-1-yl)methyl)-4-(trifluoromethyl)isoindolin-1-one] are 6.74, “(2.8x)” and 7.23.
`Cc1cnnn1CC1(c2cccc(N3Cc4c(cc(CN5CCN(C)C[C@@H]5C(C)C)cc4C(F)(F)F)C3=O)c2)COC1` [Compound 222, (S)-6-((2-Isopropyl-4-methylpiperazin-1-yl)methyl)-2-(3-(3-((5-methyl-1H-1,2,3-triazol-1-yl)methyl)oxetan-3-yl)phenyl)-4-(trifluoromethyl)isoindolin-1-one]: the pIC50 was 7.59 on c-Cbl and 7.66 against Cbl-b. For the same compound, the “(fold-selectivity)” value at c-Cbl stood at 1.2x.
Regarding `Cn1cnnc1[C@@H](F)C1(c2cccc(N3Cc4c(cc(CN5CC6CC5C6)cc4C(F)(F)F)C3=O)c2)COC1` [Compound 87, (S)-6-((2-azabicyclo[2.1.1]hexan-2-yl)methyl)-2-(3-(3-(fluoro(4-methyl-4H-1,2,4-triazol-3-yl)methyl)oxetan-3-yl)phenyl)-4-(trifluoromethyl)isoindolin-1-one], on c-Cbl, the pIC50 was 5.51 and the “(fold-selectivity)” value was 2.6x. Besides, the pIC50 on Cbl-b was 5.92.
With `CCCNCc1cc2c(c(C(F)(F)F)c1)CN(c1cc(NC(C)C)cc(C3(Cc4nncn4C)CCC3)c1)C2=O` [Compound 456, 2-(3-(isopropylamino)-5-(1-((4-methyl-4H-1,2,4-triazol-3-yl)methyl)cyclobutyl)phenyl)-6-((propylamino)methyl)-4-(trifluoromethyl)isoindolin-1-one], the pIC50 against c-Cbl was 8.12; against Cbl-b, 7.89. For the same compound, on c-Cbl, the “(fold-selectivity)” value was “(0.56x)”.
Consider `Cn1cnnc1CC1(c2cccc(N3Cc4c(cc(C5CCCN5)cc4C(F)(F)F)C3=O)c2)COC1.O=CO` (racemic) [Compound 11, 2-(3-(3-((4-methyl-4H-1,2,4-triazol-3-yl)methyl)oxetan-3-yl)phenyl)-6-(pyrrolidin-2-yl)-4-(trifluoromethyl)isoindolin-1-one formate], for which, on c-Cbl, the pIC50 was 6.21 and the “(fold-selectivity)” value stood at 1.5x. Besides, the pIC50 against Cbl-b was 6.38.
In the same order, the values of `C[C@@H](NC1(C)CCC1)c1cc2c(c(C(F)(F)F)c1)CN(c1cccc(C3(Cc4nncn4C)CC(F)(F)C3)c1)C2=O` [Compound 245, (R)-2-(3-(3,3-difluoro-1-((4-methyl-4H-1,2,4-triazol-3-yl)-methyl)cyclobutyl)phenyl)-6-(1-((1-methylcyclobutyl)amino)ethyl)-4-(trifluoromethyl)-isoindolin-1-one] are 7.89, “(1.0x)” and 7.89.
Consider `Cn1cnnc1[C@@H](F)C1(c2cccc(N3Cc4c(cc(CN5CC6(C5)CS(=O)(=O)C6)cc4C(F)(F)F)C3=O)c2)COC1` [Compound 182, (S)-6-((2,2-dioxido-2-thia-6-azaspiro[3.3]heptan-6-yl)methyl)-2-(3-(3-(fluoro(4-methyl-4H-1,2,4-triazol-3-yl)methyl)oxetan-3-yl)phenyl)-4-(trifluoromethyl)isoindolin-1-one], for which, at c-Cbl, the pIC50 is 6.37 and the “(fold-selectivity)” value is listed as 2.6x. Moreover, the pIC50 at Cbl-b was 6.77.
Turning to `Cn1cnnc1[C@@H](F)C1(c2cccc(N3Cc4c(cc(CN)cc4C(F)(F)F)C3=O)c2)COC1` [Compound 69, (S)-6-(aminomethyl)-2-(3-(3-(fluoro(4-methyl-4H-1,2,4-triazol-3-yl)methyl)oxetan-3-yl)phenyl)-4-(trifluoromethyl)isoindolin-1-one], at c-Cbl, the pIC50 was 6.47 and the “(fold-selectivity)” value worked out at 1.6x. The compound also had a pIC50 against Cbl-b of 6.68.
For `Cn1cnnc1[C@@H](F)[C@](C)(F)c1cccc(N2Cc3c(cc(CN4CC(C)(F)C4)cc3C(F)(F)F)C2=O)c1` [Compound 34], on c-Cbl, the pIC50 was 6.12 and the “(fold-selectivity)” value was found to be 2.0x. The same compound had a pIC50 on Cbl-b of 6.42.
On to `Cn1cnnc1CC1(c2cc(NC3CCCC3)cc(N3Cc4c(cc(CNC5(C)CCC5)cc4C(F)(F)F)C3=O)c2)CC(F)(F)C1` [Compound 477, 2-(3-(cyclopentylamino)-5-(3,3-difluoro-1-((4-methyl-4H-1,2,4-triazol-3-yl)methyl)cyclobutyl)phenyl)-6-(((1-methylcyclobutyl)amino)methyl)-4-(trifluoromethyl)isoindolin-1-one], for which, at c-Cbl, the pIC50 was 6.96 and the “(fold-selectivity)” value is given as “(3.4x)”. Moreover, the pIC50 at Cbl-b was 7.44.
As to `CN1CCN(Cc2cc3c(c(C(F)(F)F)c2)CN(c2cccc(C4(Cc5nncn5C)CC(F)(F)C4)c2)C3=O)CC1` [Compound 411, 2-(3-(3,3-difluoro-1-((4-methyl-4H-1,2,4-triazol-3-yl)methyl)cyclobutyl)phenyl)-6-((4-methylpiperazin-1-yl)methyl)-4-(trifluoromethyl)isoindolin-1-one], on c-Cbl, the pIC50 was 7.37 and the “(fold-selectivity)” value is given as “(0.88x)”. At Cbl-b, this compound gave a negative logarithm of the IC50 (pIC50) of 7.32.
`COC[C@@H]1CCCN1Cc1cc2c(c(C(F)(F)F)c1)CN(c1cccc(C3([C@H](F)c4nncn4C)COC3)c1)C2=O` [Compound 160, 2-(3-(3-((S)-fluoro(4-methyl-4H-1,2,4-triazol-3-yl)methyl)oxetan-3-yl)phenyl)-6-(((S)-2-(methoxymethyl)pyrrolidin-1-yl)methyl)-4-(trifluoromethyl)isoindolin-1-one]: the pIC50 at c-Cbl was 5.64; on Cbl-b, 5.85. The “(fold-selectivity)” value at c-Cbl turned out to be 1.7x.
On the same counts, the results for `Cn1cnnc1[C@@H](F)C1(c2cccc(N3Cc4c(cc(CN5CC(C)(CF)C5)cc4C(F)(F)F)C3=O)c2)COC1` [Compound 77, (S)-2-(3-(3-(fluoro(4-methyl-4H-1,2,4-triazol-3-yl)methyl)oxetan-3-yl)phenyl)-6-((3-(fluoromethyl)-3-methylazetidin-1-yl)methyl)-4-(trifluoromethyl)isoindolin-1-one] are 6.43, 6.68 and 1.8x.
In the same order, the values of `Cn1cnnc1CC1(c2cc(NC3CC=CC3)nc(N3Cc4c(cccc4C(F)(F)F)C3=O)c2)COC1` [Compound 484, 2-(6-(cyclopent-3-en-1-ylamino)-4-(3-((4-methyl-4H-1,2,4-triazol-3-yl)methyl)oxetan-3-yl)pyridin-2-yl)-4-(trifluoromethyl)isoindolin-1-one] are 5.92, 6.64 and “(4.8x)”.

By pIC50 is commonly meant −log10 of the IC50, conventionally taken in molar units.
